Test results published in the NIST ThermoML archive (doi:10.1016/j.fluid.2014.09.014).

Test: refractive index (other wavelength) (dimensionless); xn = mol fraction of the nth substance listed
Details: 308.15 K, 101 kPa, Liquid, Standard Abbe refractometry

CC(C)OC(C)C [diisopropyl ether] + CO
refractive index
Details	Wavelength=546.1 nm	Wavelength=587.6 nm	Wavelength=589.3 nm	Wavelength=632.8 nm
x2 = 0	–	1.36127	1.35983	1.35853
x2 = 0.0423	–	1.35972	1.35967	1.35842
x2 = 0.0424	–	1.35977	1.35973	1.35859
x2 = 0.082	–	1.35971	1.35966	1.35842
x2 = 0.0822	–	1.35986	1.3598	1.35855
x2 = 0.1171	–	1.3597	1.35965	1.35843
x2 = 0.1271	–	1.35972	1.35966	1.35843
x2 = 0.1827	–	1.35947	1.35942	1.35818
x2 = 0.2162	–	1.35928	1.35923	1.35801
x2 = 0.251	–	1.35892	1.35889	1.35764
x2 = 0.3298	–	1.35886	1.35881	1.35757
x2 = 0.3577	–	1.35865	1.35856	1.35731
x2 = 0.4497	–	1.35673	1.35668	1.35545
x2 = 0.4525	–	1.35714	1.35709	1.35586
x2 = 0.522	1.35635	1.35495	1.3549	1.3537
x2 = 0.5543	1.35561	1.35422	1.35417	1.35297
x2 = 0.609	1.35321	1.35182	1.35177	1.35057
x2 = 0.6529	1.35171	1.35032	1.35027	1.34908
x2 = 0.7504	1.34787	1.34649	1.34644	1.34527
x2 = 0.804	1.34371	1.34236	1.34231	1.34115
x2 = 0.807	1.3435	1.34213	1.34208	1.34093
x2 = 0.8727	1.33978	1.33843	1.33838	1.33724
x2 = 0.9233	1.33175	1.33046	1.33042	1.32933
x2 = 0.9253	1.33368	1.33239	1.33234	1.33125
x2 = 0.9527	1.33062	1.32932	1.32928	–
x2 = 0.9773	1.32717	1.32591	1.32586	–
x2 = 0.989	1.32594	1.32469	1.32465	–
x2 = 0.9964	1.32489	1.32366	1.32361	–
